Key:
POLK = assay: Western blot of POLK protein expression in BxPC-3 cells; type: cell-based, human; settings: BxPC-3, 72 h, increasing concentrations
HPNE cell line = assay: XTT cell proliferation assay, normal pancreatic HPNE cells; type: cell-based, human; settings: 72 h
Method: (§1) Human PDAC (AsPC-1, BxPC-3, Panc-1 scr, Panc-1 p53-R273H knock-out (KO) hTERT-HPNE), breast (MCF-7), lung (A549), and colon (HT-29) cancer cell lines were purchased from the American Type Culture Collection (ATCC). The MCF-7, A549, Panc-1 scr, Panc-1 p53 KO and HT-29 cell lines were grown in Dulbecco's Modified Eagle Medium (DMEM; Biological Industries, Beit HaEmek (BI), Israel), and the BxPC-3 and AsPC-1 cell lines were cultured in Roswell Park Memorial Institute-1640 (RPMI-1640; BI, Israel) medium. All media was supplemented with 10% fetal bovine serum (FBS), 200 μM L-glutamine (BI), and 1% penicillin-streptomycin (BI). Cells were cultured at 37° C. in a 5% CO2 humidified incubator.
The XTT Cell Proliferation Assay Kit was used to determine cell viability and proliferation. Cells were seeded in 96-well plates at a density of 4,000 cells per well and allowed to attach overnight in a 5% CO2 incubator at 37° C. After overnight incubation, cells were treated with culture medium or in a medium containing tigecycline, omadacycline, or eravacycline at different concentrations (1, 2, 5, 10, 25, and 50 μM) for the indicated time period. […] After shaking the plate gently to distribute the dye in the wells, the absorbance was measured with a spectrophotometer (Bio-RadiMark Microplate Absorbance reader) at a wavelength of 450 nm and a reference wavelength of 655 nm. […]

BxPC-3 cells = assay: XTT cell proliferation assay, BxPC-3; type: cell-based, human
Method: as §1
(§2) Eravacycline dihydrochloride (MedChem Express (MCE)) was dissolved in […] (DDW). Tigecycline (MCE) and omadacycline (MCE) were dissolved in dimethyl sulphoxide (DMSO). All drugs were prepared as 100 mM stock solutions. All cell lines were treated with DMSO as a control (less than 0.1%) or tigecycline, omadacycline, or eravacycline (at the indicated concentrations) for 72 hours. Cell viability and proliferation were determined using the XTT Cell Proliferation Assay Kit (Promega).
(§3) The XTT Cell Proliferation Assay Kit was used to determine cell viability and proliferation. Cells were seeded in 96-well plates at a density of 4,000 cells per well and allowed to attach overnight in a 5% CO2 incubator at 37° C. After overnight incubation, cells were treated with culture medium or in a medium containing tigecycline, omadacycline, or eravacycline at different concentrations (1, 2, 5, 10, 25, and 50 μM) for the indicated time period. Then, 50 μl XTT reaction solution (0.1 ml activation solution+5 ml XTT reagent solution) was added to each well, and the plate was incubated at 37° C. for two hours. After shaking the plate gently to distribute the dye in the wells, the absorbance was measured with a spectrophotometer (Bio-RadiMark Microplate Absorbance reader) at a wavelength of 450 nm and a reference wavelength of 655 nm.
(§4) To evaluate the half maximal inhibitory concentration (IC50) of tetracycline derivatives on five different cell lines (MCF-7, A549, HT-29, BxPC-3, and AsPC-1), the cells were seeded and allowed to attach overnight. All cells were washed with phosphate buffered saline (PBS) and then cultured in fresh media containing the drugs tigecycline, omadacycline, or eravacycline at an increasing concentration (0-50 μM) for 72 h. Inhibition of cell proliferation was determined using the XTT Cell Proliferation Assay Kit.
(§5) To investigate the effect of tetracycline derivatives on cell proliferation in human breast, lung, colon, and PDAC cells, the inventors treated all cell lines (MCF-7, A549, HT-29, BxPC-3, and AsPC-1) with different concentrations of tigecycline, omadacycline, and eravacycline (1, 2, 5, 10, 25, and 50 μM), with medium used as a control, for 72 h. Then, an XTT assay was performed to determine the growth inhibition rate.

AsPC-1 cells = assay: XTT cell proliferation assay, AsPC-1; type: cell-based, human; settings: for decrease in cell growth: 72 h
Method: as §1, §2, §3, §4, §5

BxPC-3 xenograft tumors = assay: BxPC-3 cell xenograft tumor model; type: in vivo, athymic nude mice; settings: nude mice
Method: Six-week-old female athymic nude mice were purchased from Envigo (Jerusalem, Israel) and housed in pathogen-free conditions and fed a standard sterilized diet. The mice were housed in humidity- and temperature-controlled conditions, and the light/dark cycle was set at 12 h intervals. The animal protocol was reviewed and approved by the Committee for the Ethical Care and Use of Animals in Research at Ben-Gurion University of the Negev, complying with the Israeli Animal Welfare Law. BxPC-3 cells (4×10^6) were injected subcutaneously into one flank of the mice. Tumor size was measured every other day based on caliper measurements of tumor length and width (volume=tumor length×width^2×0.5236). Ten days later, when tumors were palpable and reached volumes of 50-150 mm^3, the mice bearing tumors were randomly assigned to control or eravacycline groups (n=6). Treatment was administered every two days using either phosphate buffered saline (PBS), eravacycline (10 mg/kg by i.p. injection) or gemcitabine (25 mg/kg by i.p. injection) for 10 days. The tumor growth and mouse weight were measured every other day during the treatment period. After the last treatment, the mice were monitored for an additional six days, and then the experiment was terminated. The mice were then sacrificed, the tumors were excised, photographed, and measured, and the tumor tissues were snap-frozen, pending analysis.
To further assess the inhibition effect of eravacycline on human PDAC cells in vivo, BxPC-3 cells were injected subcutaneously into nude mice to establish xenograft models for in vivo experiments. The mice were randomly divided into three groups: the control group, the gemcitabine group (25 mg/kg), and the eravacycline group (10 mg/kg). Following the last administration of treatment, mice were monitored for an additional six days; then the experiment was terminated, the mice were sacrificed, and the tumors were excised, photographed, and weighed (FIGS. 6B-6D).

MCF-7 cells = assay: XTT cell proliferation assay, MCF-7; type: cell-based, human; settings: MCF-7, 72 h, 1-50 μM
Method: as §1, §2
(§6) The XTT Cell Proliferation Assay Kit was used to determine cell viability and proliferation. Cells were seeded in 96-well plates at a density of 4,000 cells per well and allowed to attach overnight in a 5% CO2 incubator at 37° C. […] After shaking the plate gently to distribute the dye in the wells, the absorbance was measured with a spectrophotometer (Bio-RadiMark Microplate Absorbance reader) at a wavelength of 450 nm and a reference wavelength of 655 nm.
(§7) To evaluate the half maximal inhibitory concentration (IC50) of tetracycline derivatives on five different cell lines (MCF-7, A549, HT-29, BxPC-3, and AsPC-1), the cells were seeded and allowed to attach overnight. […] Inhibition of cell proliferation was determined using the XTT Cell Proliferation Assay Kit. […]

HT-29 cells = assay: XTT cell proliferation assay, HT-29; type: cell-based, human; settings: HT-29, 72 h, 1-50 μM
Method: as §1, §2, §6, §7

A549 cells = assay: XTT cell proliferation assay, A549; type: cell-based, human; settings: A549, 72 h, 1-50 μM
Method: as §1, §2, §6, §7

[1] = 10 mg/kg i.p. every two days for 10 days

With CN(C)[C@@H]1C(O)=C(C(N)=O)C(=O)[C@@]2(O)C(O)=C3C(=O)c4c(O)c(NC(=O)CN5CCCC5)cc(F)c4C[C@H]3C[C@@H]12 [eravacycline, (4S,4aS,5aR,12aS)-4-(Dimethylamino)-7-fluoro-3,10,12,12a-tetrahydroxy-1,11-dioxo-9-[2-(pyrrolidin-1-yl)acetamido]-1,4,4a,5,5a,6,11,12a-octahydrotetracene-2-carboxamide] the “POLK protein expression vs control” value (POLK) was “significantly reduced”, the “effect on cell proliferation of normal pancreatic cells (in words)” value (HPNE cell line) was “significantly less inhibition than the other PDAC cell lines” and the “decrease in cell growth” value (BxPC-3 cells; BxPC-3, 1 μM, 72 h) was 27%. The “decrease in cell growth” value (BxPC-3 cells; BxPC-3, 10 μM, 72 h) was 63%, the “decrease in cell growth” value (BxPC-3 cells; BxPC-3, 50 μM, 72 h) was 93% and the “effect on cell survival / viability (in words)” value (BxPC-3 cells; BxPC-3, 72 h, 1-50 μM) was “strong and selective viability reduction”. The “suppression of proliferation, up to” value (BxPC-3 cells; BxPC-3, 72 h, concentration-dependent, 1-50 μM) was 90-93%, the cytotoxicity at 25 µM (BxPC-3 cells; Homo sapiens, BXPC-3, 72 h, read-out: decrease in cell growth / viability, BxPC-3, 25 μM, 72 h) was 93% and the IC50 (BxPC-3 cells; Homo sapiens, BxPC-3, 72 h, XTT, read-out: IC50, inhibition of cell proliferation) was 3.57 µM. The “decrease in cell growth / viability” value (BxPC-3 cells; human, 72 h, 25 μM) was 90%, the “decrease in cell growth” value (AsPC-1 cells; AsPC-1, 25 μM) was 75% and the “decrease in cell growth” value (AsPC-1 cells; AsPC-1, 50 μM) was 89%. The “suppression of proliferation, up to” value (AsPC-1 cells; AsPC-1, 72 h, concentration-dependent, 1-50 μM) was 90-93%, the IC50 (AsPC-1 cells; Homo sapiens, ASPC1, AsPC-1, 72 h, XTT, read-out: IC50, inhibition of cell proliferation) was 7.07 µM and the “mouse weight loss vs control group” value (BxPC-3 xenograft tumors; [1]) was “no significant weight loss”. The tumor growth blocked (BxPC-3 xenograft tumors; [1]) was 76%, the “tumor volume and tumor weight compared with gemcitabine (25 mg/kg)” value (BxPC-3 xenograft tumors; 10 mg/kg i.p.) was “superior to gemcitabine treatment” and the “effect on cell survival / proliferation (in words)” value (MCF-7 cells) was “No significant effect”. The “effect on cell survival / proliferation (in words)” value (HT-29 cells) was “No significant effect” and the “effect on cell survival / proliferation (in words)” value (A549 cells) was “No significant effect”.
